Values of other authors in patent US7354906B2, “Composition of anti-HIV drugs and anti-cortisol compounds and method for decreasing the side effects of anti-HIV drugs in a human” (Samaritan Pharmaceuticals, Inc., priority 1999, dated 2008).

Legend:
[1] = hydrochloride salt
[2] = 50 mg per day for 6 months, age advanced humans
[3] = human, 20 mg/kg/day, four weeks, no increase in caloric intake
[4] = AZT recipients

## CCN(CC)CCOC(=O)c1ccc(N)cc1.Cl [Procaine hydrochloride, 2-diethylaminoethyl p-aminobenzoate hydrochloride]
[1]
  solubility: soluble in water and alcohol, but much less soluble in organic solvents

## C[C@]12CC[C@H](O)CC1=CC[C@@H]1[C@@H]2CC[C@]2(C)C(=O)CC[C@@H]12 [DHEA, Dehydroepiandrosterone]
Dosages as high as 1.6 gm/day
  safety of DHEA dosages: safe and without side effects
men, 1600 mg/day for 28 days
  mean serum total cholesterol levels: fall
men, 1600 mg/day for 28 days, no change in weight
  mean percent body fat decrease: 31%
[2]
  bioavailable IGF-1: induced an increase

## CC(C)Oc1ccc2c(=O)c(-c3ccccc3)coc2c1 [Ipriflavone, 7-isoproxy-isoflavone]
[3]
  increase in body weight: about 5 pounds

## Cc1cn([C@H]2C[C@H](N=[N+]=[N-])[C@@H](CO)O2)c(=O)[nH]c1=O [AZT, 3′-azido-3′-deoxythymidine]
[4]
  recipients who develop anemia: 24%
